The values that follow come from patent US20160318856A1, “Substituted Urea eIF2alpha Kinase Activators” (THE BRIGHAM AND WOMEN'S HOSPITAL, INC., priority 2013, published 2016).

In assay [1] the test system is CRL-2813 human melanoma cancer cells. Kind of assay: cell proliferation (SRB) assay, CRL-2813. Type of assay: cell-based. In outline: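 Cells exposed 5 days to 0.5–20 μM compound, then TCA-fixed and stained with sulforhodamine B. Growth as 100×[(T−T0)/(C−T0)] from absorbance of treated, control and time-zero cultures; cell death as 100×[(T−T0)/T0] where T is below T0.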

In assay [2] the test system is eIF2α phosphorylation (eIF2•GTP•Met-tRNAi ternary complex; HRI activation). As to the kind of experiment: surrogate dual luciferase eIF2α phosphorylation (ternary complex) assay. Type of assay: cell-based, human. As to conditions: for maximal fold induction: Homo sapiens; for C3X: Calculated concentration of compound that will cause three-fold increase in the surrogate eIF2α phosphorylation assay: Table 7. In outline: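 Cell-based dual luciferase reporter: firefly luciferase behind the ATF-4 5′UTR (uORFs) and renilla luciferase behind a uORF-free 5′UTR, read with a dual glow kit. Activity given as firefly/renilla ratio normalised to DMSO wells set at 1, with a rising ratio reflecting reduced ternary complex (e.g., HRI activation).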

The subject of the next assay is ASPC-1. Kind of assay: cell proliferation assay, ASPC-1. Type of assay: cell-based. As to conditions: Homo sapiens, ASPC1; SRB assay, Table 7; read-out: IC50 ASPC-1. The procedure: (§1) Cells were seeded in 96-well plates and maintained for 5 days in the presence of 0.5 to 20 μM of individual compound, and cell proliferation was measured by the sulforhodamine B (SRB) assay as described previously (see, for example, Palakurthi, S. S. et al. Cancer Research 2000, 60(11), 2919-2925). Briefly, at the end of a 5-day treatment, cells were fixed in 10% cold trichloroacetic acid. Cell number was estimated by measuring the remaining bound dye of sulforhodamine B after washing. The percentage of growth was calculated by using the equation: 100×[(T−T0)/(C−T0)], where T and C represent the absorbance in treated and control cultures at Day 5, and T0 at time zero, respectively. If T is less than T0, cell death has occurred and can be calculated from 100×[(T−T0)/T0].
(§2) The compounds shown in Table 7 were evaluated using for activation of HRI using the dual luciferase surrogate eIF2α phosphorylation assay (see, for example, Chen, T. et al. Nature Chem Biol 2011, 7, 610-616) and for inhibition of cell proliferation using the SRB assay (see, for example, Palakurthi, S. S. et al. Cancer Res 2000, 60, 2919-2925) as described above.
For orientation: Sulforhodamine B stains cellular protein and so reports cell mass.

A further assay has as its system Panc-1. Kind of assay: cell proliferation (SRB) assay, Panc-1. It is filed as cell-based. As to conditions: Homo sapiens, Table 7. The procedure: as §1, §2
A further assay has as its system NIH/3T3 fibroblast cells. As to the kind of experiment: cell proliferation (SRB) assay, NIH/3T3. Type of assay: cell-based. The procedure:
as §1
The experiments were conducted in triplicate, and each experiment was independently performed three times. IC50=effective dose of drug that inhibit cell proliferation by 50%. Data are shown as Mean±S.E.M.
Compounds I-6p, I-17, I-18 and I-20 were tested in NIH/3T3 fibroblast and CRL-2813 melanoma cancer cells in cell proliferation assay. The experiment was conducted in triplicate and each experiment was independently performed three times. Data are shown as Mean IC50±S.E.M.

The subject of assay [3] is CRL-2813 human melanoma cancer cells transfected with HRI-targeting or non-targeting siRNA. As to the kind of experiment: cell proliferation (SRB) assay after HRI knockdown. It is filed as cell-based. As to conditions: for dependence of inhibition of cell proliferation on HRI: HRI siRNA vs non-target siRNA, CRL-2813 (also MCF-7). The procedure: as §1
Cell proliferation is a meaningful read-out for determining the specificity of a compound as it captures both on-target and off-target effects of the compound under study. […] If these compounds specifically activate HRI and this activity is required for the inhibition of cell proliferation, then reducing the expression of HRI should blunt their effect on cell proliferation. For this purpose, expression of HRI was knocked down in CRL-2813 human melanoma (about 70% knockdown efficiency) and MCF-7 human breast cancer cells (about 90% knockdown efficiency). These two cell lines were chosen because the HRI knockdown efficiency is lower in CRL-2813 than in MCF-7 cells providing a sort of dose-response data that correlates knockdown efficiency with the resistance of cells to inhibition of cell proliferation. […] Referring to FIG. 5A, CRL-2813 human melanoma cancer cells, and (FIG. 5B) MCF-7 human breast cancer cells were transfected with HRI targeted or non-targeted siRNA, treated with the indicated concentrations of I-6p and cell proliferation was measured by SRB assay. Calculated IC50 for all four compounds tested in CRL-2813 human melanoma cancer cells and MCF-7 human breast cancer cells transfected with non-target siRNA control (NTC) or HRI is shown in FIG. 5C and FIG. 5D, respectively. The experiment was conducted in triplicate and each experiment was independently performed three times. Data are shown as Mean±S.E.M. *NTC=non-target siRNA control.
Referring to FIG. 8, CRL-2813 human melanoma cancer cells were transfected with HRI targeted or non-targeted siRNA, treated with the indicated concentrations of (A) I-14, (B) I-15, (C) III-4 and (D) III-5 and cell proliferation was measured by SRB assay. Calculated IC50 for all four compounds tested in CRL-2813 human melanoma cancer cells transfected with non-target siRNA control (NTC) or HRI is shown in (E). The experiment was conducted in triplicate and each experiment was independently performed three times. Data are shown as Mean±S.E.M. *NTC=non-target siRNA control, IC50=effective dose of drug that inhibit cell proliferation by 50%.
In general, if the affinity of compounds for their molecular target is increased this should result in higher specificity of the compounds in the cell proliferation assay. […] These five compounds, two with average and three with high potency, were tested in cell proliferation assay using CRL-2813 cells transfected with non-targeted siRNA or HRI-targeted siRNA as described above.

The mark [4] stands for this setting: Homo sapiens, CRL2813, SRB assay, Table 7, read-out: IC50 CRL-2813.
Setting [5] is: DMSO = 1, maximum tested concentration 20 μM, read-out: Emax: Maximum activity of compound expressed as fold over vehicle.
The mark [6] stands for this setting: Homo sapiens, CRL2813, cell proliferation assay, Table 4, cell line not named, read-out: IC50.
The mark [7] stands for this setting: surrogate eIF2α phosphorylation assay, Table 4, read-out: Emax (F/R).

Read-outs that look alike come from different tables or passages of the source.

Usually IC50 stands for the concentration at which inhibition is half-maximal.

Consider `NC(=O)c1cc(C(F)(F)F)ccc1O[C@H]1CC[C@H](NC(=O)Nc2cccc(C(F)(F)F)c2)CC1`, for which the half-inhibitory concentration (IC50) was found to be 1900 nM in assay [1] (setting [4]), 4000 nM with ASPC-1 and 2700 nM with Panc-1. Also, in assay [2] (setting [5]), the maximal fold induction stood at 8. Also, the “C3X: Calculated concentration of compound that will cause three-fold increase in the surrogate eIF2α phosphorylation assay” value in assay [2] is 7 µM.
The like results for `NC(=O)c1cc(O[C@H]2CC[C@H](NC(=O)Nc3cccc(C(F)(F)F)c3)CC2)ccc1C(F)(F)F` were, in that order, 2100 nM, 3000 nM, 2500 nM, 2.8 and >20 µM.
The like results for `NC(=O)c1cc(C(F)(F)F)ccc1O[C@H]1CC[C@H](NC(=O)Nc2cccc(OC(F)(F)F)c2)CC1` were, in that order, 1400 nM, 3200 nM, 1900 nM, 6 and 8 µM.
In the case of `NC(=O)c1cc(O[C@H]2CC[C@H](NC(=O)Nc3cccc(OC(F)(F)F)c3)CC2)ccc1C(F)(F)F`, the IC50 in assay [1] (setting [4]) worked out at 3000 nM; in the assay with ASPC-1, 2900 nM; in the assay on Panc-1, 3000 nM. Moreover, the maximal fold induction in assay [2] (setting [5]) came out at 5. Also, the “C3X: Calculated concentration of compound that will cause three-fold increase in the surrogate eIF2α phosphorylation assay” value in assay [2] is 14 µM.
As to `O=C(Nc1cccc(OC(F)(F)F)c1)N[C@H]1CC[C@H](Oc2ccc(C(F)(F)F)cc2)CC1`, the concentration for half-maximal inhibition (IC50) in assay [1] (setting [4]) worked out at 900 nM; in the assay with ASPC-1, 1000 nM; in the assay with Panc-1, 1500 nM. Further, the maximal fold induction in assay [2] (setting [5]) was 28. Moreover, the “C3X: Calculated concentration of compound that will cause three-fold increase in the surrogate eIF2α phosphorylation assay” value in assay [2] was 0.2 µM.
On to `CC(=O)Nc1cc(C(F)(F)F)ccc1O[C@H]1CC[C@H](NC(=O)Nc2cccc(OC(F)(F)F)c2)CC1`, for which the 50% inhibitory concentration (IC50) in assay [1] (setting [4]) was determined as 1700 nM; with ASPC-1, 2800 nM; in the assay on Panc-1, 2500 nM. In addition, the maximal fold induction in assay [2] (setting [5]) was 5. In assay [2], the “C3X: Calculated concentration of compound that will cause three-fold increase in the surrogate eIF2α phosphorylation assay” value was 4 µM.
Turning to `CC(=O)Nc1cc(C(F)(F)F)ccc1O[C@H]1CC[C@H](NC(=O)Nc2cccc(C(F)(F)F)c2)CC1`, the IC50 in assay [1] (setting [4]) came to 1900 nM; in the assay with ASPC-1, 2600 nM; with Panc-1 it was 1700 nM. In addition, the maximal fold induction in assay [2] (setting [5]) stood at 4.2. Moreover, the “C3X: Calculated concentration of compound that will cause three-fold increase in the surrogate eIF2α phosphorylation assay” value in assay [2] was 3.5 µM.
For `O=C(Nc1cccc(C(F)(F)F)c1)N[C@H]1CC[C@H](Oc2ccc(C(F)(F)F)cc2[N+](=O)[O-])CC1` the same measures were 4000 nM, > 10000 nM, 4000 nM, 13 and 5 µM.
With `O=C(Nc1cccc(OC(F)(F)F)c1)N[C@H]1CC[C@H](Oc2ccc(C(F)(F)F)cc2[N+](=O)[O-])CC1`, the values for the 50% inhibitory concentration (IC50) (in assay [1] (setting [4]); with ASPC-1; with Panc-1) were 500 nM, 800 nM and 1100 nM, respectively. For the same compound, the maximal fold induction in assay [2] (setting [5]) was found to be 12. In addition, the “C3X: Calculated concentration of compound that will cause three-fold increase in the surrogate eIF2α phosphorylation assay” value in assay [2] was 0.5 µM.
On to `O=C(Nc1cccc(C(F)(F)F)c1)N[C@H]1CC[C@H](Oc2ccc(C(F)(F)F)cc2)CC1`, for which the half-maximal inhibitory concentration (IC50) worked out at 500 nM in assay [1] (setting [4]), 900 nM with ASPC-1 and 900 nM with Panc-1. In addition, the maximal fold induction in assay [2] (setting [5]) is 25. For the same compound, in assay [2], the “C3X: Calculated concentration of compound that will cause three-fold increase in the surrogate eIF2α phosphorylation assay” value is 0.4 µM.
Consider `O=C(Nc1ccc(OC(F)(F)F)cc1)NC1CCC(Oc2ccc(F)cc2)CC1` (centres unmarked) [Compound I-6p], for which the 50% inhibitory concentration (IC50) in assay [1] (CRL-2813, Table 5, Mean±S.E.M., read-out: IC50) was determined as 2700 ± 100 nM; in assay [1] (CRL-2813, Table 8, Mean IC50±S.E.M., read-out: IC50 of compounds), 2700 ± 100 nM; in assay [1] (cell proliferation assay (SRB, 5 days), cell line not named in Table 1, values equal CRL-2813 values of Tables 5/8, read-out: IC50) it was 2700 ± 100 nM; with NIH/3T3 fibroblast cells (NIH/3T3, Table 5, Mean±S.E.M., read-out: IC50), 13600 ± 800 nM; with NIH/3T3 fibroblast cells (NIH/3T3, Table 8, Mean IC50±S.E.M., read-out: IC50 of compounds) it was 13600 ± 800 nM. The “Emax (F/R)” value in assay [2] (ternary complex assay, F/R normalized to vehicle (DMSO = 1)) is 15.32 F/R. Further, in the assay with NIH/3T3 fibroblast cells (CRL-2813 human melanoma vs NIH-3T3 fibroblast), the “fold higher potency on cancer cells compared to non-transformed cells” value is recorded as “five-fold higher potency”.
With `O=C(Nc1cccc(C(F)(F)F)c1)NC1CCC(Oc2cccc(F)c2)CC1` (centres unmarked) [Compound I-15, 1-(4-(3-Fluorophenoxy)cyclohexyl)-3-(3-(trifluoromethyl)phenyl)urea], in assay [1] (Homo sapiens, CRL2813, cell proliferation assay, Table 3, cell line not named, values equal CRL-2813 values of Table 8, read-out: IC50), the IC50 was found to be 2400 ± 600 nM. In assay [2] (surrogate eIF2α phosphorylation assay, Table 3, read-out: Emax (F/R)), the maximal fold induction came to 7.23. The “fold higher IC50 values in cells transfected with HRI-targeting siRNA vs. non-targeting siRNA” value in assay [3] (CRL-2813 cells, FIG. 10) is on record as ~7 fold. The “dependence of inhibition of cell proliferation on HRI” value in assay [3] is given as “dependent on HRI”. Also, the “fold difference in resistance of cells to inhibition of cell proliferation upon HRI knockdown” value in assay [3] (average, CRL-2813, FIG. 8) is recorded as ~8 fold.
In the case of `O=C(Nc1cccc(C(F)(F)F)c1)NC1CCC(OCc2ccc(F)cc2)CC1` (centres unmarked) [III-4, 1-(4-((4-Fluorobenzyl)oxy)cyclohexyl)-3-(3-(trifluoromethyl)phenyl)urea], in assay [1] (setting [6]), the half-maximal inhibitory concentration (IC50) was found to be 2650 ± 800 nM. Further, the maximal fold induction in assay [2] (setting [7]) amounted to 9.58. For the same compound, the “dependence of inhibition of cell proliferation on HRI” value in assay [3] is given as “dependent on HRI”.
The like results for `O=C(Nc1cccc(C(F)(F)F)c1)NC1CCCCC1Oc1ccc(C(F)(F)F)cc1` (centres unmarked) [III-5, 1-(2-(4-(Trifluoromethyl)phenoxy)cyclohexyl)-3-(3-(trifluoromethyl)phenyl)urea] were, in that order, 3100 ± 1100 nM, 5.89 and “dependent on HRI”.
